Numbers after ± are expanded uncertainties.
Columns and labels:
[1] = refractive index (Na D-line) (dimensionless); conditions: 101.33 kPa, Liquid, Standard Abbe refractometry
[2] = for mass density / viscosity: 101.33 kPa, Liquid; for surface tension liquid-gas: Pendant drop shape

CCOS(=O)(=O)[O-].CCn1cc[n+](C)c1 [1-ethyl-3-methylimidazolium ethyl sulfate]
Conditions | mass density, [2] [kg/m3] | refractive index, [1] | surface tension liquid-gas, [2] [mN/m] | viscosity, [2] [mPa·s]
293.15 K | 1241.86 ± 1.3 | 1.47959 ± 0.00047 | – | 122.07 ± 6
303.15 K | 1235.06 ± 1.3 | 1.47694 ± 0.00047 | 47.34 ± 0.5 | 75.1 ± 1.9
313.15 K | 1228.28 ± 1.3 | 1.47429 ± 0.00047 | 46.67 ± 0.5 | 49.84 ± 0.9
323.15 K | 1221.54 ± 1.2 | 1.47158 ± 0.00047 | 46.17 ± 0.49 | 35.34 ± 0.62
333.15 K | 1214.84 ± 1.2 | 1.46893 ± 0.00047 | 45.53 ± 0.49 | 25.93 ± 0.45
343.15 K | 1208.19 ± 1.2 | 1.46625 ± 0.00047 | – | 19.36 ± 0.34
353.15 K | 1201.58 ± 1.2 | 1.46359 ± 0.00047 | – | 15.12 ± 0.26

CCn1cc[n+](C)c1.O=S(=O)([O-])C(F)(F)C(F)F
Conditions | mass density, [2] [kg/m3] | refractive index, [1] | surface tension liquid-gas, [2] [mN/m] | viscosity, [2] [mPa·s]
293.15 K | 1435.84 ± 2 | 1.441 ± 0.00047 | – | 117.43 ± 5.6
303.15 K | 1427.44 ± 2 | 1.43833 ± 0.00047 | 43.29 ± 0.47 | 72.64 ± 1.7
313.15 K | 1419.04 ± 2 | 1.4357 ± 0.00047 | 42.45 ± 0.46 | 48.32 ± 0.87
323.15 K | 1410.67 ± 2 | 1.43304 ± 0.00047 | 42.03 ± 0.45 | 33.94 ± 0.6
333.15 K | 1402.33 ± 1.9 | 1.43041 ± 0.00047 | 41.43 ± 0.45 | 25.05 ± 0.44
343.15 K | 1394.02 ± 1.9 | 1.42777 ± 0.00047 | – | 18.86 ± 0.33
353.15 K | 1385.76 ± 1.9 | 1.42514 ± 0.00047 | – | 14.74 ± 0.26
